Experimental data: patent publication US9000154B2, “Rho kinase inhibitors” (Boehringer Ingelheim International GmbH, priority 2010, dated 2015)
Structures can show the parent of a compound that is named as a salt.

What was measured:
[1] = target: T1, ROCKII (1-543) (Homo sapiens, UniProt O75116); assay: IMAP Assay (fluorescence polarization, FAM S6 peptide); assay type: biochemical; design: 3 nM ROCKII (1-543) diluted in kinase reaction buffer; conditions: IMAP FP, 1 nM ROCKII (1-543), 100 μM ATP; read-out: Assay 2 IC50
Protocol: This assay is performed using FAM S6 substrate peptide (Catalogue #R7184) and IMAP FP Screening Express Kit detection reagents from Molecular Devices (Sunnyvale, Calif.) in IMAP kinase reaction buffer (Tris-HCl, pH 7.2, 10 mM MgCl2, 0.05% NaN3, 0.1% phosphate-free BSA) containing 1 mM DTT. Test compounds dissolved in neat DMSO at 0.3 mg/mL are serially diluted 1 to 3 for concentration response in 100% DMSO. The DMSO serial dilutions are further diluted 33.33-fold in kinase reaction buffer, and 10 μL of this buffer dilution is transferred to Corning black 96-well half area NBS plates for a final top concentration of 3 μg/mL in 1% DMSO. 10 μL aliquot of 3 nM ROCKII (1-543) diluted in kinase reaction buffer is added to each assay well for a final concentration of 1 nM kinase. 10 μL of a mixture of 600 nM FAM S6 peptide and 300 μM ATP diluted in kinase reaction buffer is added to each well for a final concentration of 200 nM peptide and 100 μM ATP. The kinase reaction mixture is incubated for 60 minutes at room temperature. Positive controls are reaction mixtures containing no test compound and negative controls (blanks) are reaction mixtures containing no kinase. The kinase reaction is stopped by addition of 60 μL IMAP progressive binding reagent (Catalog #R7284) diluted 400-fold in 1× Binding buffer A. After 30 min of incubation at room temperature, the plates are read for fluorescence polarization on Analyst Plate Reader using Ex 485 nm, Em 530 nm, and FL 505 dichroic mirror. The mP signals are converted to percent of control (POC) values using the formula: POC=100*(Signal−BCTRL)÷(PCTRL−BCTRL)
Where Signal is the test well signal, BCTRL is the average of background (negative control) well signals on the plate and PCTRL is the average of positive control well signals on the plate. For the concentration-responsive compounds, POC as a function of test compound concentration is fitted to a 4-parameter logistic equation of the form: Y=A+(B−A)/[1+(x/C)D]
Where A, B, C, and D are fitted parameters (parameter B is fixed at zero POC), and x and y are the independent and dependent variables, respectively. The IC50 is determined as the inflection point parameter, C.
Target sequence in this assay (O75116 1-543, species assumed): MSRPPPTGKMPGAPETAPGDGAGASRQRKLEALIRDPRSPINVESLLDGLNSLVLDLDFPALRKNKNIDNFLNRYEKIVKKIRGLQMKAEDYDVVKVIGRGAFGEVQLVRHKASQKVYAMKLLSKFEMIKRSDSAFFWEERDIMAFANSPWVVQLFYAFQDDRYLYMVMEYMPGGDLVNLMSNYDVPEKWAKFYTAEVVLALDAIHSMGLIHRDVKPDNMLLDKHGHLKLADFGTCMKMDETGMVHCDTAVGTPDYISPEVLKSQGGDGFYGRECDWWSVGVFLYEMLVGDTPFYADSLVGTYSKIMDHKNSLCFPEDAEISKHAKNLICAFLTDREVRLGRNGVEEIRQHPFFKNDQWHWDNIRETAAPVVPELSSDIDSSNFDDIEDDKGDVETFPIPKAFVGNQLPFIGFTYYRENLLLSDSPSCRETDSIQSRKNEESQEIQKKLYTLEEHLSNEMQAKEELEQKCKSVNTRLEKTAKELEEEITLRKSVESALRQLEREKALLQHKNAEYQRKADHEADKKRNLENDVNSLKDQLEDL

[2] = target: T1, ROCKII (1-543); assay: Luciferin-Luciferase Assay (PKLight ATP detection); assay type: biochemical; design: ROCKII (1-543) (62,408 Da) was diluted in assay buffer; conditions: 7.5 nM ROCKII (1-543), 750 nM ATP
Protocol: 1. Luciferin-Luciferase Assay
The activity of ROCKII (1-543) kinase was measured utilizing Cambrex PKLight ATP Detection Reagent, a homogeneous assay technology using luciferin-luciferase to quantify residual ATP. The assay was performed in 384-well low-volume, white, non-binding surface microtiter plates (Corning). The assay buffer was 25 mM HEPES, pH 7.5, 10 mM MgCl2, 50 mM KCl, 0.2% BSA, 0.01% CHAPS, 100 μM Na3VO4 and 0.5 mM DTT. Test compounds, dissolved in neat DMSO at 500 μg/mL, were serially diluted for dose response for a final starting concentration of 3 μg/mL in 1% DMSO of assay buffer. ROCKII (1-543) (62,408 Da) was diluted in assay buffer to a final concentration of 7.5 nM in a total volume of 15 μL. Positive controls were reaction mixtures containing no test compound; negative controls (blanks) were reaction mixtures containing no kinase. After 15 minutes of pre-incubation of the test compounds with the kinase, a mixture of ATP and peptide substrate (AKRRRLSSLRA) in assay buffer was added to each well for a final concentration of 750 nM ATP and 500 nM peptide, respectively. After 90 minutes of incubation of the kinase reaction at 28° C. temperature, 10 μL of PKLight ATP Detection Reagent (warmed to room temperature previously) was added to each well. The assay plate was incubated at room temperature for additional 15 minutes and then read on an Analyst in luminescence mode. Dose-response experiments for each of the test compounds were conducted in quadruplet. IC50 values of test compounds represent 50% response of the positive control from the dose-response curve.
Target sequence in this assay (O75116 1-543): as the sequence (O75116 1-543, species assumed) above

| SMILES | IC50 [1] [nM] | IC50 [2] [nM] |
| --- | --- | --- |
| CN1CCc2nc(NC(=O)c3cccc(CN4CCN(c5ccc(C#N)cc5)C4=O)c3)sc2C1 [Compound 1, 3-[3-(4-Cyano-phenyl)-2-oxo-imidazolidin-1-ylmethyl]-N-(5-methyl-4,5,6,7-tetrahydro-thiazolo[5,4-c]pyridin-2-yl)-benzamide] | 54 | 4.8 |
| CN(C)[C@H]1CCc2nc(NC(=O)c3cccc(CN4CCN(c5ccc(C#N)cc5)C4=O)c3)sc2C1 [Compound 3, 3-[3-(4-Cyano-phenyl)-2-oxo-imidazolidin-1-ylmethyl]-N—((S)-6-dimethylamino-4,5,6,7-tetrahydro-benzothiazol-2-yl)-benzamide] | 0.67 | 2 |
| N#Cc1ccc(N2CCN(Cc3cccc(C(=O)Nc4nc5c(s4)C[C@@H](N4CCOCC4)CC5)c3)C2=O)cc1 [Compound 6, 3-[3-(4-Cyano-phenyl)-2-oxo-imidazolidin-1-ylmethyl]-N—((S)-6-morpholin-4-yl-4,5,6,7-tetrahydro-benzothiazol-2-yl)-benzamide] | 1.3 | 2 |
| N#Cc1ccc(-c2cn(Cc3cccc(C(=O)Nc4nc5c(s4)C[C@@H](N4CCOCC4)CC5)c3)cn2)cc1 [Compound 10, 3-[4-(4-Cyano-phenyl)-imidazol-1-ylmethyl]-N—((S)-6-morpholin-4-yl-4,5,6,7-tetrahydro-benzothiazol-2-yl)-benzamide] | 0.87 | 2.7 |
| N#Cc1ccc(-c2cnn(Cc3cccc(C(=O)Nc4nc5c(s4)CC(N4CCC(F)(F)CC4)CC5)c3)c2)cc1 (stereo not shown) [Compound 15, 3-[4-(4-Cyano-phenyl)-pyrazol-1-ylmethyl]-N-[6-(4,4-difluoro-piperidin-1-yl)-4,5,6,7-tetrahydro-benzothiazol-2-yl]-benzamide trifluoroacetate] | 2.4 | 4.6 |
| N#Cc1ccc(-c2cnn(Cc3cccc(C(=O)Nc4nc5c(s4)CC(N4CCC(F)CC4)CC5)c3)c2)cc1 (stereo not shown) [Compound 18, 3-[4-(4-Cyano-phenyl)-pyrazol-1-ylmethyl]-N-[6-(4-fluoro-piperidin-1-yl)-4,5,6,7-tetrahydro-benzothiazol-2-yl]-benzamide trifluoroacetate] | 0.66 | 2.2 |
| N#Cc1ccc(-c2cn(Cc3cccc(C(=O)Nc4nc5c(s4)C[C@@H](NCCC(F)(F)F)CC5)c3)nn2)cc1 [Compound 22, 3-[4-(4-Cyano-phenyl)-[1,2,3]triazol-1-ylmethyl]-N—[(S)-6-(3,3,3-trifluoro-propylamino)-4,5,6,7-tetrahydro-benzothiazol-2-yl]-benzamide] | 1.1 | 2.2 |
| C[C@@H]1CN(C2CCc3nc(NC(=O)c4cccc(Cn5cc(-c6ccc(C#N)cc6)cn5)c4)sc3C2)C[C@H](C)O1 (stereo partly drawn) [Compound 26, 3-[4-(4-Cyano-phenyl)-pyrazol-1-ylmethyl]-N-[6-((2R,6S)-2,6-dimethyl-morpholin-4-yl)-4,5,6,7-tetrahydro-benzothiazol-2-yl]-benzamide] | 3.9 | 4.3 |
| C[C@@H]1CN(C2CCc3nc(NC(=O)c4cccc(Cn5cc(-c6ccc(C#N)cc6)nn5)c4)sc3C2)C[C@H](C)O1 (stereo partly drawn) [Compound 27, 3-[4-(4-Cyano-phenyl)-[1,2,3]triazol-1-ylmethyl]-N-[6-((2S,6R)-2,6-dimethyl-morpholin-4-yl)-4,5,6,7-tetrahydro-benzothiazol-2-yl]-benzamide] | 3.9 | 3.1 |
| CN(CC(F)F)C1CCc2nc(NC(=O)c3cccc(Cn4cc(-c5ccc(C#N)cc5)cn4)c3)sc2C1 (stereo not shown) [Compound 59, 3-[4-(4-Cyano-phenyl)-pyrazol-1-ylmethyl]-N-{6-[(2,2-difluoro-ethyl)-methyl-amino]-4,5,6,7-tetrahydro-benzothiazol-2-yl}-benzamide] | – | 7.3 |
| COCCN(C)[C@@H]1CCc2nc(NC(=O)c3cccc(Cn4cc(-c5ccc(C#N)cc5)cn4)c3)sc2C1 [Compound 64, 3-[4-(4-Cyano-phenyl)-pyrazol-1-ylmethyl]-N-{(R)-6-[(2-methoxy-ethyl)-methyl-amino]-4,5,6,7-tetrahydro-benzothiazol-2-yl}-benzamide] | – | 2 |
| N#Cc1ccc(-c2cnn(Cc3cccc(C(=O)Nc4nc5c(s4)CC(N4CCCC(F)(F)C4)CC5)c3)c2)cc1 (stereo not shown) [Compound 71, 3-[4-(4-Cyano-phenyl)-pyrazol-1-ylmethyl]-N-[6-(3,3-difluoro-piperidin-1-yl)-4,5,6,7-tetrahydro-benzothiazol-2-yl]-benzamide] | – | 7.2 |
| N#Cc1ccc(-c2cnn(Cc3cccc(C(=O)Nc4nc5c(s4)CC(N4CCC(F)(F)C4)CC5)c3)c2)cc1 (stereo not shown) [Compound 73, 3-[4-(4-Cyano-phenyl)-pyrazol-1-ylmethyl]-N-[6-(3,3-difluoro-pyrrolidin-1-yl)-4,5,6,7-tetrahydro-benzothiazol-2-yl]-benzamide] | – | 8.5 |

Continued, values first:

| IC50 [1] [nM] | IC50 [2] [nM] | SMILES |
| --- | --- | --- |
| 11 | 2.8 | CN1CCc2nc(NC(=O)c3cccc(Cn4cc(-c5ccc(C#N)cc5)nn4)c3)sc2C1 [Compound 2, 3-[4-(4-Cyano-phenyl)-[1,2,3]triazol-1-ylmethyl]-N-(5-methyl-4,5,6,7-tetrahydro-thiazolo[5,4-c]pyridin-2-yl)-benzamide] |
| 2.6 | 3.1 | COCCN(C)C1CCc2nc(NC(=O)c3cccc(Cn4cc(-c5ccc(C#N)cc5)nn4)c3)sc2C1 (stereo not shown) [Compound 24, 3-[4-(4-Cyano-phenyl)-[1,2,3]triazol-1-ylmethyl]-N-{6-[(2-methoxy-ethyl)-methyl-amino]-4,5,6,7-tetrahydro-benzothiazol-2-yl}-benzamide] |
| – | 2.2 | N#Cc1ccc(-c2cn(Cc3cccc(C(=O)Nc4nc5c(s4)C[C@H](N)CC5)c3)nn2)cc1 [Compound 58, N—((R)-6-Amino-4,5,6,7-tetrahydro-benzothiazol-2-yl)-3-[4-(4-cyano-phenyl)-[1,2,3]triazol-1-ylmethyl]-benzamide] |
| – | 1.9 | COCCN[C@@H]1CCc2nc(NC(=O)c3cccc(Cn4cc(-c5ccc(C#N)cc5)nn4)c3)sc2C1 [Compound 65, 3-[4-(4-Cyano-phenyl)-[1,2,3]triazol-1-ylmethyl]-N—[(R)-6-(2-methoxy-ethylamino)-4,5,6,7-tetrahydro-benzothiazol-2-yl]-benzamide] |
| – | 6.5 | COCCN(C)[C@@H]1CCc2nc(NC(=O)c3cccc(Cn4cc(-c5ccc(C#N)cc5)nn4)c3)sc2C1 [Compound 66, 3-[4-(4-Cyano-phenyl)-[1,2,3]triazol-1-ylmethyl]-N-{(R)-6-[(2-methoxy-ethyl)-methyl-amino]-4,5,6,7-tetrahydro-benzothiazol-2-yl}-benzamide] |
| – | 4.5 | CN(C1CC1)C1CCc2nc(NC(=O)c3cccc(Cn4cc(-c5ccc(C#N)cc5)cn4)c3)sc2C1 (stereo not shown) [Compound 67, 3-[4-(4-Cyano-phenyl)-pyrazol-1-ylmethyl]-N-[6-(cyclopropyl-methyl-amino)-4,5,6,7-tetrahydro-benzothiazol-2-yl]-benzamide] |
| – | 7.3 | CN(C1CC1)C1CCc2nc(NC(=O)c3cccc(Cn4cc(-c5ccc(C#N)cc5)nn4)c3)sc2C1 (stereo not shown) [Compound 68, 3-[4-(4-Cyano-phenyl)-[1,2,3]triazol-1-ylmethyl]-N-[6-(cyclopropyl-methyl-amino)-4,5,6,7-tetrahydro-benzothiazol-2-yl]-benzamide] |
